Series [1] relates to HMGCR mRNA in primary hepatocytes. The series is described as follows: HMGCR mRNA in primary hepatocytes cultured with anti-HMGCR siRNA and/or atorvastatin (qPCR). Particulars: siRNA alone, 24 hours. The format is cell-based, C57B6 mice. On the procedure:
qPCR assays. Quantitative, real-time PCR was performed using the Bio-Rad icycler system and iCycler reagents as recommended by the manufacturer. The primers used to amplify HMGCR sequences were SEQ ID 17 and SEQ ID 31.
Total RNA from these cells was isolated and transcribed into cDNA using an oligo-dT primer and reverse transcriptase. Subsequently, HMGCR levels were assayed using quantitative, real-time PCR.
(In general: In qPCR the cycle at which signal appears reflects the starting amount.)

The subject of series [2] is mouse HMG CoA reductase mRNA. The series is described as follows: Serum triglyceride levels after tail vein injection of siRNA against HMG CoA reductase. The series is classed as in vivo, Apoetm1Unc mice. As to conditions: for Triglyceride levels: absorbance at 520 nm. On the procedure:
Group A (series2) mice (5 mice) were each injected with 50 μg of an siRNA directed against mouse HMG CoA reductase mRNA. Group B (Series 1) mice (5 mice) were an uninjected control group. Group A and Group B animals were bled 7 days before, 2 days after, 4 days after, and 7 days after the injection. Serum samples were stored at −20° C. until all timepoints had been collected. Each group's serum samples from a given time-point were pooled prior to the triglyceride assays. Triglyceride assays were performed in quintuplicate.
A total of 50 μg of siRNA-HMGCR was dissolved in 2.2 ml Ringer's solution (147 mM NaCl, 4 mM KCl, 1.13 mM CaCl2), and injected into the tail vein of ApoE (−/−) mice over 7-12 seconds. Control mice were not injected and are referred to here as naive. Each mouse was bled from the retro-orbital sinus at various times prior to and after injection. Cells and clotting factors were pelleted from the blood to obtain serum. The serum triglyceride levels were then assayed by a enzymatic, colorimetric assay using the Infinity Triglyceride Reagent (Sigma Co.).
Triglyceride assays. Serum samples were diluted 1:100 in the Infinity Triglyceride Reagent (2 μl in 200 μl) in a clear, 96-well plate. Each assay plate was then incubated at 37° C. for five minutes, removed and allowed to cool to room temperature. Absorbance was measured at 520 nm using a SpectraMax Plus plate reader (Molecular Devices, Inc). Background absorbance (no serum added) was subtracted from each reading and the resulted data was plotted versus timepoint.

d = 2'-deoxy (DNA); r = 2'-OH (RNA)

As for “siRNA-HMGCR: annealed oligomers SEQ ID 25 and SEQ ID 26, positions 2324-2344 of murine HMG CoA reductase reading frame (Examples 16, 18) (chain 1 ACAUUGUCACUGCUAUCUATT; chain 2 UAGAUAGCAGUGACAAUGUTT; sugars from the 5' end r19 d2, backbone not given here; listed as Mus musculus)”, in series [1], the “HMGCR mRNA, % of that seen in control cells” value was “approximately 20%”. In addition, in series [2] (50 μg siRNA tail vein, after 7 days), the “triglyceride levels (in words)” value is “returned to normal levels”. Moreover, the triglyceride levels reduced in series [2] (50 μg siRNA tail vein, after two days) is 62%; in series [2] (50 μg siRNA tail vein, second value, printed again as after two days) it was 56%. Moreover, the Triglyceride levels in series [2] (day +2, pooled serum) amounted to 0.082 ± 0.006; in series [2] (day +4, pooled serum), 0.095 ± 0.005; in series [2] (day +7, pooled serum), 0.189 ± 0.012; in series [2] (day −7 (before injection), pooled serum), 0.218 ± 0.008.

These data come from patent US20050037989A1, “Inhibition of gene function by delivery of polynucleotide-based gene expression inhibitors to mammalian cells in vivo” (priority 2001, published 2005).
